Source: ChEMBL document CHEMBL5034025 (Eur J Med Chem, 2021)

Biological target: Glutaminyl-peptide cyclotransferase (Homo sapiens, UniProt Q16769)
Assay: Inhibition of human recombinant glutaminyl cyclase using H-Gln-AMC hydrobromide as substrate measured after 15 mins by fluorimetry

Chain of Glutaminyl-peptide cyclotransferase (Q16769 whole entry): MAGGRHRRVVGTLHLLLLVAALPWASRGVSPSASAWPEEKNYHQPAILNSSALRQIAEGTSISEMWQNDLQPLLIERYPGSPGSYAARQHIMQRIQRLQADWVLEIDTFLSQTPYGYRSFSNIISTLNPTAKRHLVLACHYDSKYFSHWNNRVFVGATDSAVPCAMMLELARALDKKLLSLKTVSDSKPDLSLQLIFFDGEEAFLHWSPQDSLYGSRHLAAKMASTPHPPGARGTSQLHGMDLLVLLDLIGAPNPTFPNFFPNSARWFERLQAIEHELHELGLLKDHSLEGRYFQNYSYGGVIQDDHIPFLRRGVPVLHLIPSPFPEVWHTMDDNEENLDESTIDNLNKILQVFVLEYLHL

**Q.** For `COc1ccc(N(C(=S)NCCCn2cncc2C)C2CCN(C)CC2)cc1OC`, which IC50 is on record?
**A.** Its IC50 is 6.1 nM.
